Test results as given in PubChem BioAssay (NCI).
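96-well plates; 48 h exposure; 5 concentrations. Endpoints by linear interpolation between flanking doses. Not reached: highest tested concentration assigned. Abbreviation: GI50, concentration required for 50% inhibition of growth. TGI marks complete inhibition of growth.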

Key:
Assay in all cases: NCI-60 cell line screen, 48 h
[1] = system: A498 renal
[2] = system: HCC-2998 colon
[3] = system: PC-3 prostate
[4] = system: SK-MEL-2 melanoma
[5] = system: MDA-MB-435
[6] = system: U251 CNS
[7] = system: RXF 393 renal
[8] = system: 786-0 renal
[9] = system: KM12 colon
[10] = system: COLO 205 colon
[11] = system: NCI-H460 lung
[12] = system: SF-268 CNS
[13] = system: NCI-H226 lung
[14] = system: OVCAR-8 ovarian
[15] = system: RPMI-8226 leukemia
[16] = system: K-562 leukemia
[17] = system: HOP-62 NSCLC
[18] = system: OVCAR-3 ovarian
[19] = system: SF-539 CNS
[20] = system: EKVX NSCLC
[21] = system: OVCAR-4 ovarian
[22] = system: UO-31 renal
[23] = system: NCI-H23 lung
[24] = system: HS 578T breast
[25] = system: M14 melanoma
[26] = system: T-47D breast
[27] = system: UACC-257 melanoma
[28] = system: HCT-15 colon
[29] = system: MDA-MB-231 breast
[30] = system: HT29 colon
[31] = system: HL-60(TB) leukemia
[32] = system: ACHN renal
[33] = system: CAKI-1 renal
[34] = system: A549 NSCLC
[35] = system: MALME-3M melanoma
[36] = system: CCRF-CEM leukemia
[37] = system: HOP-92 NSCLC
[38] = system: UACC-62 melanoma
[39] = system: NCI-H522 lung
[40] = system: SK-MEL-5 melanoma
[41] = system: NCI/ADR-RES ovarian
[42] = system: IGROV1 ovarian
[43] = system: HCT-116 colon
[44] = system: SK-OV-3 ovarian
[45] = system: OVCAR-5 ovarian
[46] = system: LOX IMVI melanoma
[47] = system: SN12C renal
[48] = system: SNB-75 CNS
[49] = system: BT-549 breast
[50] = system: DU-145 prostate
[51] = system: SK-MEL-28 melanoma
[52] = system: SNB-19 CNS
[53] = system: MCF7 breast
[54] = system: TK-10 renal
[55] = system: SR leukemia
[56] = system: MOLT-4 leukemia
[57] = system: SW-620 colon

`CCCCCCOc1ccc(/C=N/NC(N)=S)cc1` was tested. Which GI50 [1] did it give?
Its GI50 is 16.8 µM.

What about the TGI [1] of the same compound?
The TGI was 32.3 µM.

What about the GI50 [2] of the same compound?
Its GI50 is 6.45 µM.

What about the TGI [2] of the same compound?
The TGI was over 100 µM.

And the GI50 [3]?
The GI50 was 4.07 µM.

And the TGI [3]?
The TGI was over 100 µM.

What about the GI50 [4] of the same compound?
The GI50 was 6.95 µM.

What about the TGI [4] of the same compound?
Its TGI is over 49.9 µM.

What about the GI50 [5] of the same compound?
Its GI50 is 1.84 µM.

What about the TGI [5] of the same compound?
Its TGI is 7.56 µM.

What about the GI50 [6] of the same compound?
Its GI50 is 7.96 µM.

And the TGI [6]?
The TGI was over 100 µM.

And the GI50 [7]?
Its GI50 is 1.44 µM.

And the TGI [7]?
The TGI was 3.61 µM.

And the GI50 [8]?
Its GI50 is 1.74 µM.

And the TGI [8]?
Its TGI is 6.05 µM.

What about the GI50 [9] of the same compound?
The GI50 was 3.09 µM.

And the TGI [9]?
The TGI was 13.6 µM.

What about the GI50 [10] of the same compound?
Its GI50 is 7.21 µM.

What about the TGI [10] of the same compound?
Its TGI is 48.5 µM.

And the GI50 [11]?
Its GI50 is 10.2 µM.

What about the TGI [11] of the same compound?
Its TGI is over 100 µM.

And the GI50 [12]?
Its GI50 is 3.31 µM.

What about the TGI [12] of the same compound?
Its TGI is 41.8 µM.

What about the GI50 [13] of the same compound?
Its GI50 is 3.65 µM.

And the TGI [13]?
Its TGI is 16.5 µM.

And the GI50 [14]?
Its GI50 is 7.69 µM.

And the TGI [14]?
The TGI was over 100 µM.

What about the GI50 [15] of the same compound?
Its GI50 is 1.36 µM.

What about the TGI [15] of the same compound?
The TGI was 4.41 µM.

What about the GI50 [16] of the same compound?
Its GI50 is 1.72 µM.

And the TGI [16]?
Its TGI is over 26.8 µM.

What about the GI50 [17] of the same compound?
The GI50 was 60.1 µM.

And the TGI [17]?
Its TGI is over 100 µM.

And the GI50 [18]?
The GI50 was 1.97 µM.

And the TGI [18]?
Its TGI is 6.6 µM.

And the GI50 [19]?
Its GI50 is 2.38 µM.

What about the TGI [19] of the same compound?
The TGI was 6.06 µM.

What about the GI50 [20] of the same compound?
The GI50 was 2.83 µM.

What about the TGI [20] of the same compound?
The TGI was over 53.1 µM.

And the GI50 [21]?
The GI50 was 3.12 µM.

What about the TGI [21] of the same compound?
Its TGI is 35 µM.

What about the GI50 [22] of the same compound?
Its GI50 is 0.822 µM.

What about the TGI [22] of the same compound?
The TGI was 3.66 µM.

And the GI50 [23]?
Its GI50 is 4.3 µM.

What about the TGI [23] of the same compound?
Its TGI is over 100 µM.

What about the GI50 [24] of the same compound?
Its GI50 is 3.16 µM.

What about the TGI [24] of the same compound?
The TGI was 15 µM.

What about the GI50 [25] of the same compound?
Its GI50 is 2.54 µM.

And the TGI [25]?
Its TGI is 12.1 µM.

And the GI50 [26]?
Its GI50 is 2.39 µM.

What about the TGI [26] of the same compound?
The TGI was 18.2 µM.

And the GI50 [27]?
The GI50 was 3.5 µM.

And the TGI [27]?
Its TGI is 27.8 µM.

And the GI50 [28]?
Its GI50 is 2.69 µM.

What about the TGI [28] of the same compound?
Its TGI is over 100 µM.

What about the GI50 [29] of the same compound?
The GI50 was 1.67 µM.

What about the TGI [29] of the same compound?
The TGI was 17.1 µM.

What about the GI50 [30] of the same compound?
Its GI50 is 3.21 µM.

And the TGI [30]?
The TGI was over 100 µM.

What about the GI50 [31] of the same compound?
The GI50 was 1.15 µM.

What about the TGI [31] of the same compound?
Its TGI is 17.7 µM.

And the GI50 [32]?
The GI50 was 5.89 µM.

And the TGI [32]?
Its TGI is over 100 µM.

And the GI50 [33]?
Its GI50 is 1.57 µM.

And the TGI [33]?
Its TGI is 5.71 µM.

And the GI50 [34]?
The GI50 was 31.8 µM.

What about the TGI [34] of the same compound?
Its TGI is over 100 µM.

And the GI50 [35]?
The GI50 was 2.74 µM.

What about the TGI [35] of the same compound?
The TGI was 7.82 µM.

And the GI50 [36]?
Its GI50 is 0.605 µM.

And the TGI [36]?
Its TGI is 7.69 µM.

And the GI50 [37]?
The GI50 was 2.39 µM.

And the TGI [37]?
Its TGI is 27.4 µM.

What about the GI50 [38] of the same compound?
The GI50 was 2.58 µM.

What about the TGI [38] of the same compound?
Its TGI is 10.3 µM.

What about the GI50 [39] of the same compound?
Its GI50 is 0.421 µM.

What about the TGI [39] of the same compound?
The TGI was 1.76 µM.

And the GI50 [40]?
Its GI50 is 7.52 µM.

And the TGI [40]?
The TGI was 20.8 µM.

What about the GI50 [41] of the same compound?
Its GI50 is 3.4 µM.

What about the TGI [41] of the same compound?
Its TGI is 18.3 µM.

What about the GI50 [42] of the same compound?
The GI50 was 0.922 µM.

And the TGI [42]?
Its TGI is 5.36 µM.

What about the GI50 [43] of the same compound?
The GI50 was 3.31 µM.

And the TGI [43]?
Its TGI is 16.1 µM.

What about the GI50 [44] of the same compound?
Its GI50 is 27.2 µM.

And the TGI [44]?
Its TGI is over 100 µM.

What about the GI50 [45] of the same compound?
The GI50 was 12.8 µM.

And the TGI [45]?
Its TGI is over 100 µM.

What about the GI50 [46] of the same compound?
The GI50 was 3.78 µM.

What about the TGI [46] of the same compound?
Its TGI is 21.1 µM.

And the GI50 [47]?
Its GI50 is 2.16 µM.

What about the TGI [47] of the same compound?
The TGI was 9.9 µM.

And the GI50 [48]?
Its GI50 is 4.74 µM.

What about the TGI [48] of the same compound?
Its TGI is 25.6 µM.

And the GI50 [49]?
The GI50 was 2.79 µM.

What about the TGI [49] of the same compound?
The TGI was 9.15 µM.

And the GI50 [50]?
Its GI50 is 7.26 µM.

What about the TGI [50] of the same compound?
Its TGI is over 100 µM.

What about the GI50 [51] of the same compound?
Its GI50 is 10.9 µM.

What about the TGI [51] of the same compound?
Its TGI is 38.4 µM.

And the GI50 [52]?
Its GI50 is 12.3 µM.

What about the TGI [52] of the same compound?
The TGI was over 100 µM.

What about the GI50 [53] of the same compound?
The GI50 was 6.74 µM.

And the TGI [53]?
Its TGI is 34.3 µM.

And the GI50 [54]?
Its GI50 is 5.54 µM.

What about the TGI [54] of the same compound?
Its TGI is 30.1 µM.

And the GI50 [55]?
Its GI50 is 4.22 µM.

What about the TGI [55] of the same compound?
The TGI was over 100 µM.

What about the GI50 [56] of the same compound?
The GI50 was 0.432 µM.

And the TGI [56]?
The TGI was 5.26 µM.

What about the GI50 [57] of the same compound?
The GI50 was 1.99 µM.

What about the TGI [57] of the same compound?
Its TGI is 20.5 µM.
